In patent US9790545B2, “Method for determining the neurodevelopmental toxicity of a compound in vitro” (UNIVERSITEIT MAASTRICHT, priority 2012, dated 2017):
Where two headings read alike, the source gives them in different places.

Experiments:
Nrk = assay: Relative gene expression in neural differentiation culture of murine embryonic stem cells (ES-D3), microarray; details: exposed from day 3, harvested day 4 (24 h exposure), ratio to reference value, concentration coded in label (L low, H high, Table 3)
1700011H14Rik = assay: as above; details: exposed from day 3, harvested day 4 (24 h exposure), ratio to reference value, concentration coded in label (L low, H high, Table 3)
Tph1 = assay: as above; details: exposed from day 3, harvested day 4 (24 h exposure), ratio to reference value, concentration coded in label (L low, H high, Table 3)
Hoxb6 = assay: as above; details: exposed from day 3, harvested day 4 (24 h exposure), ratio to reference value, concentration coded in label (L low, H high, Table 3)
[1] = tested on: neural outgrowth of embryoid bodies from murine embryonic stem cells (ES-D3); assay: Golden standard classification of neurodevelopmental toxicity (morphological scoring of neural outgrowth); details: for Golden standard: tox / nontox at the concentration coded in the label (Table 3); for Neuro-developmentally toxic: yes / no at the concentration (μM) given in Table 3
[2] = tested on: neural outgrowth of embryoid bodies from murine embryonic stem cells (ES-D3)

Molecule	relative expression value Nrk (Nrk)	relative expression value 1700011H14Rik (1700011H14Rik)	relative expression value Tph1 (Tph1)	relative expression value Hoxb6 (Hoxb6)	Golden standard [1]	Neuro-developmentally toxic [1]	further results
Methylmercury chloride [mehgH]	0.719	1.665	1.116	1.302	tox	yes	–
NC(=O)N1c2ccccc2C=Cc2ccccc21 [cbzL, Carbamazepine]	1.055	0.870	0.945	0.991	nontox	no	relative expression value Nrk (Nrk; listed as cbzH): 1.217; relative expression value 1700011H14Rik (1700011H14Rik; listed as cbzH): 0.533; relative expression value Tph1 (Tph1; listed as cbzH): 0.751; relative expression value Hoxb6 (Hoxb6; listed as cbzH): 0.950; Golden standard ([1]; listed as cbzH): tox; Neuro-developmentally toxic ([1]; listed as cbzH): yes
CC1(C)S[C@@H]2[C@H](NC(=O)Cc3ccccc3)C(=O)N2[C@H]1C(=O)[O-].[Na+] [pengL, Penicillin G]	–	–	–	–	nontox	no	–
CCCCC(O)(Cn1cncn1)c1ccc(Cl)cc1Cl (stereo not shown) [hexL, Hexaconazole]	–	–	–	–	–	–	Golden standard [2]: nontox; Neuro-developmentally toxic [2]: no
O=C1NC(=O)C(c2ccccc2)(c2ccccc2)N1 [pheL, Phenytoin]	0.766	1.146	0.817	0.839	nontox	no	relative expression value Nrk (Nrk; listed as pheH): 0.781; relative expression value 1700011H14Rik (1700011H14Rik; listed as pheH): 0.995; relative expression value Tph1 (Tph1; listed as pheH): 0.781; relative expression value Hoxb6 (Hoxb6; listed as pheH): 0.840; Golden standard ([1]; listed as pheH): tox; Neuro-developmentally toxic ([1]; listed as pheH): yes

More lines, main results first:

relative expression value Nrk (Nrk)	relative expression value 1700011H14Rik (1700011H14Rik)	relative expression value Tph1 (Tph1)	relative expression value Hoxb6 (Hoxb6)	Molecule	Golden standard [1]	Neuro-developmentally toxic [1]	further results
0.909	1.175	0.891	0.917	CC=O [aceL, Acetaldehyde]	nontox	no	relative expression value Nrk (Nrk; listed as aceH): 1.290; relative expression value 1700011H14Rik (1700011H14Rik; listed as aceH): 0.562; relative expression value Tph1 (Tph1; listed as aceH): 1.094; relative expression value Hoxb6 (Hoxb6; listed as aceH): 1.100; Golden standard ([1]; listed as aceH): tox; Neuro-developmentally toxic ([1]; listed as aceH): yes
0.914	0.962	0.944	0.807	CCCC(CCC)C(=O)O [VpaL, Valproic acid]	nontox	no	relative expression value Nrk (Nrk; listed as VpaH): 1.518; relative expression value 1700011H14Rik (1700011H14Rik; listed as VpaH): 0.316; relative expression value Tph1 (Tph1; listed as VpaH): 1.130; relative expression value Hoxb6 (Hoxb6; listed as VpaH): 0.721; Golden standard ([1]; listed as VpaH): tox; Neuro-developmentally toxic ([1]; listed as vpaH): yes
